The source of these data is US20160244436A1, “NOVEL FUNCTIONALIZED 5-(PHENOXYMETHYL)-1,3-DIOXANE ANALOGS EXHIBITING CYTOCHROME P450 INHIBITION AND THEIR METHOD OF USE” (CORTENDO AB (PUBL), priority 2013, published 2016).

A short description of data set [1]: Pharmacokinetic studies in the guinea pig (1 mg/kg IV, 10 mg/kg oral). The format is in vivo. As for the experimental part: Pharmacokinetic studies in the guinea pig were run using 1 mg/kg IV dosing (20% DMA, 40% TEG, 40% water) and 10 mg/kg oral dosing (2% Tween-80, 98% HPMC (1% water)).
In another data set the target is T1, recombinant CYP-17 (Homo sapiens, UniProt P05093).
T1 construct: expressed in transfected cells; host or cells: AD293
T1 sequence (P05093 1-508): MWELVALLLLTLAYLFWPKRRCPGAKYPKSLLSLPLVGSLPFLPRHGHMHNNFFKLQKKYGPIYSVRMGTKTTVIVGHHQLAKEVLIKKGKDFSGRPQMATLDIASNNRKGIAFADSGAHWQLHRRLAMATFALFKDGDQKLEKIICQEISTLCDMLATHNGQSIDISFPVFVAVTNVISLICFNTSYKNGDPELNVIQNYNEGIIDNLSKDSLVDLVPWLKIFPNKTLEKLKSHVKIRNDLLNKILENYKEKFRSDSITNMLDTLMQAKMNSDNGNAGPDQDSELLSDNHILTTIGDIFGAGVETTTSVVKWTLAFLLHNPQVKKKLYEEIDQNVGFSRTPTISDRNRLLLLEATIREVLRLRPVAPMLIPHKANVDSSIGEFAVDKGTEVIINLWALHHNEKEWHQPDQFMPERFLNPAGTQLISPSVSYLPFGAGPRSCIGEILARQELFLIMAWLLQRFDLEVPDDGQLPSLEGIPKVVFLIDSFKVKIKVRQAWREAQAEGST
Put plainly: Cyp17 assay: AD293 cells over-expressing recombinant CYP-17, 3H-acetic acid release from [21-3H] 17α-hydroxyl-Pregnenolone. The format is cell-based. The method, then:
Cyp17 assay protocol: AD293 cells that stably over-express recombinant CYP-17 were seeded in 96 well plates coated with poly D-lysine (15,000 cell per well) and incubated at 37° C. for 24 hours in Dulbecco's Modified Eagle Medium (DMEM) with Fetal Bovine Serum (FBS) that is stripped of hormones by charcoal treatment. The media is then removed, the cells are washed once with Phosphate buffer saline solution, and 50 μL Dulbecco's Modified Eagle Medium (DMEM) with Fetal Bovine Serum (FBS) that is stripped of hormones by charcoal treatment is added. Compounds of the disclosure are then added to the wells in eight concentration spanning 10 μM to 4.5 nM, and the plates are incubated for an additional 60 minutes at 37° C. [21-^3H] 17α-hydroxyl-Pregnenolone is then added (50 nCi per well, 31.25 nM) and the plates are incubated for an additional 4 hours at 37° C. The media is then collected, 200 μL, of chloroform is added, and the mixture is shaken for 1 hour. The aqueous layer is then separated and analyzed for the presence of ^3H-acetic acid using a Perkin Elmer Topcount NXT to determine IC50s of the compounds of the disclosure.

In a further data set the target is T2, recombinant CYP-11 (Homo sapiens, UniProt P15538).
T2 construct: expressed in transfected cells; host or cells: AD293
T2 sequence (P15538 25-503): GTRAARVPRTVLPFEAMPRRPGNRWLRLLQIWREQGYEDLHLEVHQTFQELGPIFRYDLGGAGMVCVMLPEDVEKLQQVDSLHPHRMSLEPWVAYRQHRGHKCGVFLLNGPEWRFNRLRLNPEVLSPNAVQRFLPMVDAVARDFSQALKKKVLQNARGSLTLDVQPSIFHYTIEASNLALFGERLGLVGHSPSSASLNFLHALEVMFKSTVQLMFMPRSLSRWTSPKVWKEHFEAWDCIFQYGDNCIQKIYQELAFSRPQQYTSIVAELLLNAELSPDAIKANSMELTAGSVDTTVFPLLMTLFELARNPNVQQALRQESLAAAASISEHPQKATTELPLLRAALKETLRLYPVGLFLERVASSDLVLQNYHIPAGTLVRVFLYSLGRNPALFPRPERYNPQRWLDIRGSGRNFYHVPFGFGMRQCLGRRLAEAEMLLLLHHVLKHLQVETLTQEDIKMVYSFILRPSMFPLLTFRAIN
Put plainly: Cyp11 assay: AD293 cells over-expressing recombinant CYP-11, cortisol formation from 11-deoxycortisol by LC/MS. The format is cell-based. As for the experimental part:
Cyp11 assay protocol: AD293 cells that stably over-express recombinant CYP-11 were seeded in 96 well plates coated with poly D-lysine (15,000 cell per well) and incubated at 37° C. for 24 hours in Dulbecco's Modified Eagle Medium (DMEM) with Fetal Bovine Serum (FBS) that is stripped of hormones by charcoal treatment. The media is then removed, the cells are washed once with Phosphate buffer saline solution, and 50 μL Dulbecco's Modified Eagle Medium (DMEM) with Fetal Bovine Serum (FBS) that is stripped of hormones by charcoal treatment is added. Compounds of the disclosure are then added to the wells in eight concentration spanning 10 μM to 4.5 nM, and the plates are incubated for an additional 60 minutes at 37° C. 11-deoxycortisol is then added (2.0 μM) and the plates are incubated for an additional 12 hours at 37° C. After incubation, 50 uL of the supernatant (medium) is transferred into a fresh plate and 150 uL of an acetonitrile solution containing 200 ng/ml of Telmisartan is added. The sample is mixed and then placed in a centrifuge at 2000 rpm for 5 minutes. 100 uL of the supernatant is transferred into a fresh 96 well deep well plate, 100 uL of 1:1 methanol:water was added, the solution was mixed and then analyzed by LC/MS for the presence of cortisol using an Agilent 1200 RRLC/ABSCIEX API4000 LC-MS or Shimadzu Prominance/ABSCIEX API4000 LC-MS to determine IC5os of the compounds of the disclosure.

In another data set the target is T3, recombinant CYP-21 (Homo sapiens, UniProt P08686).
T3 construct: expressed in transfected cells; host or cells: AD293
T3 sequence (P08686 1-495): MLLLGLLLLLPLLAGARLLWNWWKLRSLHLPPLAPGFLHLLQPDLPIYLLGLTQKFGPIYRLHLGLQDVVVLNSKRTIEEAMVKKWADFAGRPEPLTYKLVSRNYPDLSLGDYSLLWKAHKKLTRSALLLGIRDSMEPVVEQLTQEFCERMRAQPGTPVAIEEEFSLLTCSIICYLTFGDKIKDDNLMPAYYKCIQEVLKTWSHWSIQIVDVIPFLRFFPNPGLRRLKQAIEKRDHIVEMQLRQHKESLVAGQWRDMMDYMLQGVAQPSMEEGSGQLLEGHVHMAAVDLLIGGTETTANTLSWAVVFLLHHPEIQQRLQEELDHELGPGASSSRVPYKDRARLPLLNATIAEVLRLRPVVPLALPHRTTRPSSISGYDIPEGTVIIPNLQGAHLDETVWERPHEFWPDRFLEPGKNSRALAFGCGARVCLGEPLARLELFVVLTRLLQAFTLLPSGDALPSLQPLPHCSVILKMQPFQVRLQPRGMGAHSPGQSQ
The data set is described as follows: Cyp21 assay: AD293 cells over-expressing recombinant CYP-21, 11-deoxycortisol formation from 17α-OH Progesterone by LC/MS. The format is cell-based. The method, then:
Cyp21 assay protocol: AD293 cells that stably over-express recombinant CYP-21 were seeded in 96 well plates coated with poly D-lysine (10,000 cell per well) and incubated at 37° C. for 24 hours in Dulbecco's Modified Eagle Medium (DMEM) with Fetal Bovine Serum (FBS) that is stripped of hormones by charcoal treatment. The media is then removed, the cells are washed once with Phosphate buffer saline solution, and 50 μL Dulbecco's Modified Eagle Medium (DMEM) with Fetal Bovine Serum (FBS) that is stripped of hormones by charcoal treatment is added. Compounds of the disclosure are then added to the wells in eight concentration spanning 10 μM to 4.5 nM, and the plates are incubated for an additional 60 minutes at 37° C. 17α-OH Progesterone is then added (1.0 μM) and the plates are incubated for an additional 45 minutes at 37° C. After incubation, 50 uL of the supernatant (medium) is transferred into a fresh plate and 150 uL of an acetonitrile solution containing 200 ng/ml of Telmisartan is added. The sample is mixed and then placed in a centrifuge at 2000 rpm for 5 minutes. 100 uL of the supernatant is transferred into a fresh 96 well deep well plate, 100 uL of 1:1 methanol:water was added, the solution was mixed and then analyzed by LC/MS for the presence of 11-deoxycortisol using an Agilent 1200 RRLC/ABSCIEX API4000 LC-MS or Shimadzu Prominance/ABSCIEX API4000 LC-MS to determine IC5os of the compounds of the disclosure.

In the case of `CC(=O)N1CCN(c2ccc(CO[C@H]3CO[C@](Cn4ccnc4)(c4ccc(Cl)cc4Cl)OC3)cc2)CC1` [drawing 113], the bioavailability in data set [1] (in vivo, 10 mg/kg oral vs 1 mg/kg IV) worked out at 184%. For the same molecule, in data set [1] (oral, 10 mg/kg), the AUC0-inf amounted to 14891 ng·h/mL; the AUC0-last was found to be 8231 ng·h/mL; the AUCExtra amounted to 43.93%; the peak concentration (Cmax) – broadly, the highest concentration seen after dosing – was 1018 ng/mL. Besides, in data set [1] (oral, 10 mg/kg), the MRT0-last is recorded as 5.56 h; the Tmax (as a rule, the time from dosing to the highest level) came to 3 h; the t1/2 was 6.0 h. In data set [1] (oral, 10 mg/kg, dose-normalised AUC), the “DNAUC (0-inf)” value was 823.1. The Rsq in data set [1] (oral, 10 mg/kg, fit of terminal phase) is 0.91.

With `CCOC(=O)CNC(=O)N1CCN(c2ccc(CO[C@H]3CO[C@](Cn4ccnc4)(c4ccccc4Cl)OC3)cc2)CC1` [Example 510018], the IC50 (in general, the concentration that inhibits the measured activity by half) on recombinant CYP-17 is 40 nM; at recombinant CYP-11 it was 107 nM; on recombinant CYP-21, 2800 nM.

For the molecule `CC(=O)N1CCN(c2ccc(CO[C@H]3CO[C@](Cn4ccnc4)(c4ccc(Cl)cc4Cl)OC3)cc2)CC1` [Example 500015], the figures for the IC50 at recombinant CYP-17, on recombinant CYP-11 and at recombinant CYP-21 were 8 nM, 12 nM and 208 nM, respectively.
